What is called inhibition is how much of the control response was suppressed. The IC50 is the concentration that gives 50% inhibition. A lower IC50 goes with inhibition by little substance.

6 compounds from paper PMC8879803, “Identification of a Common Pharmacophore for Binding to MMP2 and RGD Integrin: Towards a Multitarget Approach to Inhibit Cancer Angiogenesis and Metastasis” (Molecules, 2022) can be followed below.

Assay [1] deals with M21 human melanoma cells. As to the kind of experiment: Inhibition of integrin-mediated M21 cell adhesion to vitronectin. It is filed as cell-based. As to conditions: Homo sapiens, M21, 2 mM MnCl2, relative to vehicle (PBS). The method, then:
All the compounds but 17 were also tested for their integrin binding affinity towards M21 human melanoma cells that expresses high levels of αvβ3 heterodimer and using cilengitide as a control. Tests were performed in the presence of 2 mM MnCl2 to switch integrins of tumour cells into an activated form, and at final concentration of the compounds ranging from 30 μM to 0.3 μM (Table 3). […] We were pleased to find that compound 19 maintained a good inhibition potency at 0.3 μM as the lowest concentration used, thus confirming the capacity of this compound to inhibit the binding of M21 melanoma cells to vitronectin as an RGD-containing substrate.
The expression levels of αVβ3 integrin receptors on M21 melanoma cell lines were reported previously. Next, 96 wells plates were coated overnight, at 4 °C, with vitronectin (5 μg/mL in PBS) (V8379 Sigma). Plates were, then washed with phosphate buffered saline (PBS) solution and incubated at 37 °C for 1 h with PBS containing 1% bovine serum albumin (BSA). M21 cells were centrifugated (RT, at 700× g) in PBS, to remove serum. Cells were counted and suspended in serum-free medium at 5.0 × 10^5 cells/mL. Melanoma cell suspensions were pre-incubated with different amounts of the compounds. The final concentration ranged from 30 uM to 0.3 uM, using cilengitide as a control. The incubation was performed at 37 °C for 30 min to allow the ligand-receptor equilibrium to be reached. Next, cells were plated on VN substrata (5–6 × 10^4 cells/well) and incubated at 37 °C for 1 h. The assays were conducted in the presence of 2 mmol/L MnCl2 [26]. At the end of the incubation, plates were washed with PBS to remove the non-adherent cells, and 200 μL of 0.5% crystal violet solution in 20% methanol were added. After 2 h of static incubation at 4 °C, plates were examined at 540 nm in a counter ELX800 (Bio TEK Instruments, Winooski, VT, USA). Experiments were done in triplicate and repeated at least three times. The values are expressed as % inhibition of cell adhesion relative to cells exposed to vehicle alone (PBS).

Assay [2] deals with MMP9 (Homo sapiens, UniProt P14780). Description: Fluorometric enzyme inhibition assay with fluorogenic substrate Mca-Lys-Pro-Leu-Gly-Leu-Dpa-Ala-Arg-NH2 (MMP9). The assay is classed as biochemical. As to conditions: enzyme 1 nM; for inhibition at 10 µM: 10 μM compound; for inhibition at 10 µM / inhibition at 50 µM: mean of three assays; for inhibition at 50 µM: 50 μM compound; for IC50: dose-response. Here is the method:
(§1) For all the compounds showing >50% inhibition activity the IC50 values were obtained by dose-response measurements using an inhibitor range of concentrations (0.01 nM–20 μM) and enzyme concentration equal to 1 nM.
(§2) The inhibition potency of hydroxamic acid derivatives against MMP2 and MMP9 was assayed through a fluorometric assay using the fluorogenic substrate Mca-Lys-Pro-Leu-Gly-Leu-Dpa-Ala-Arg-NH2 (Enzo life science). All the measurements were performed in 96-well plates with a Fluostar Optima microplate reader (BMG Labtech, Ortenberg, Germany). Excitation and emission wavelengths were 320 and 420 nm, respectively. All incubations were performed at 28 °C in 50 mM TrisHCl, 150 mM NaCl, 10 mM CaCl2, 0.05% Brij 35, 1% DMSO at pH 7.5. The inhibitors were pre-incubated with enzymes (1 nM) for 5 min at room temperature before the reaction was started by the addition of the fluorogenic substrate (3 µM). The […] of fluorescence was monitored over 30 min (λex = 320 nm, λem = 420 nm) at 28 °C. The percentages of inhibition for the test compounds were determined through the equation (1 − Vs/Vo) × 100, where vs. is the initial velocity in the presence of the inhibitor and V0 is the initial velocity of the uninhibited reaction. The IC50 values were obtained by dose-response measurements using inhibitor range of concentrations 0.00001–20 μM and enzyme concentration equal to 1 nM. A detergent-based assay was used to determine the presence of promiscuous inhibitors. All the experiments were performed in triplicates and data collected were analyzed using Graphpad 5.0 Software Package (GraphPad Prism Inc., San Diego, CA, USA).

Assay [3] has as its target T1, purified human integrin proteins αvβ3 (Homo sapiens, UniProt P05106+P06756).
T1 construct: purchased Sino Biological Europe GmbH, Eschborn, Germany
Description: Solid-phase integrin binding assay (competition with biotinylated vitronectin). The following applies: read-out: Inhibition % of biotinylated vitronectin specific binding to αvβ3. Here is the method:
As regarding to the binding affinity towards αvβ3, the library was screened using an in vitro solid-phase assays were performed at 10, 1.0 and 0.1 μM concentration of the test compounds for their ability to compete with biotinylated vitronectin for binding to pure αvβ3 integrin isolated from human placenta, and % binding activity is reported in Table 2.
Purified αvβ3 receptors (Sino Biological Europe GmbH, Eschborn, Germany) were diluted to 0.5 μg/mL in coating buffer containing Tris-HCl (20 mmol/L; pH 7.4), NaCl (150 mmol/L), MnCl2 (1 mmol/L), CaCl2 (2 mmol/L) and MgCl2 (1 mmol/L). An aliquot of diluted receptors (100 μL per well) was added to 96-well microtiter plates (MW 96F Medisorp Straight Nunc, Thermo Fischer Scientific, Waltham, MA, USA) and incubated, overnight, at 4 °C. The plates were then incubated with blocking solution (coating buffer plus 5% bovine serum albumin) for an additional 2 h at room temperature to block nonspecific binding followed by 3 h incubation at room temperature with various concentrations of test compounds in the presence of vitronectine (1 μg/mL, Sigma Aldrich, Merck KGaA, Darmstadt, Germany) biotinylated by using EZ-Link Sulfo-NHS-Biotinylation kit (Thermo Fisher, Waltham, MA, USA). After washing, the plates were incubated for 1 h at room temperature with streptavidin–biotinylated peroxidase complex (GE Healthcare, Chicago, IL, USA), followed by 30 min incubation with substrate reagent solution (100 μL; R&D Systems) before stopping the reaction by addition of H2SO4 (2 N, 50 μL). Absorbance at 415 nm was read with a BMG Labtech Fluostar Optima microplate reader. All the experiments were performed in triplicates and data collected were analyzed using the GraphPad 5.0 Software Package.

Assay [4] deals with T2, MMP2 (Homo sapiens, UniProt P08253).
T2 sequence (P08253 110-660): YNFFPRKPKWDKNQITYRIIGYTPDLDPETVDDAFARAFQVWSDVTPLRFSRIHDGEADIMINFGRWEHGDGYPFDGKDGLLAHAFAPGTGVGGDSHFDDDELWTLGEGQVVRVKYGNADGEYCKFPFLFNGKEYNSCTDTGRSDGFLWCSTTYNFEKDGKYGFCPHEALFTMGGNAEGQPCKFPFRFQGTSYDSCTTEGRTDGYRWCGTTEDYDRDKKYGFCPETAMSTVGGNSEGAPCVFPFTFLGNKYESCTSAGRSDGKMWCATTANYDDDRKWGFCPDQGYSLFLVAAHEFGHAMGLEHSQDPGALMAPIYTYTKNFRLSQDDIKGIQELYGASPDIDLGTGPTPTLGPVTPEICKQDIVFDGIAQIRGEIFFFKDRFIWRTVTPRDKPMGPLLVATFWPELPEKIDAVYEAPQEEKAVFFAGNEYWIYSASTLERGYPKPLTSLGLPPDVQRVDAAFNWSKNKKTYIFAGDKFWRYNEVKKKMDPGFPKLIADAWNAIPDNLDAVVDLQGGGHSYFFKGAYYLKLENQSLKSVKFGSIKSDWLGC
Description: Fluorometric enzyme inhibition assay with fluorogenic substrate Mca-Lys-Pro-Leu-Gly-Leu-Dpa-Ala-Arg-NH2 (MMP2). The assay is classed as biochemical. The following applies: for inhibition at 10 µM: 10 μM compound; for inhibition at 10 µM / inhibition at 50 µM / IC50: enzyme 1 nM; for inhibition at 10 µM / inhibition at 50 µM: mean of three assays; for inhibition at 50 µM: 50 μM compound; for IC50: dose-response. Here is the method:
as §1, §2

Turning to `N=C(N)NCCCOc1ccc(C[C@H](NS(=O)(=O)c2ccccc2)C(=O)O)cc1` [Compound 9, (S)-3-(4-(3-Guanidinopropoxy)phenyl)-2-(phenylsulfonamido)propanoic Acid], in assay [1], testing at 0.3 µM gave an inhibition of 41.4%, the inhibition at 3 µM was found to be 62.5% and the inhibition at 30 µM stood at 75.9%. For the same compound, in assay [2], the inhibition at 10 µM came out at 0% and the inhibition at 50 µM stood at 0%. Moreover, in assay [3], the inhibition at 0.1 µM was 0%, the inhibition at 1 µM stood at 18% and the inhibition at 10 µM was determined as 54%. Further, in assay [4], 10 µM produced 0% inhibition and the inhibition at 50 µM was found to be 21%.

As to `NCCCOc1ccc(C[C@H](NS(=O)(=O)c2ccc(-c3ccccc3)cc2)C(=O)O)cc1` [Compound 16, (S)-2-([1,1′-Biphenyl]-4-ylsulfonamido)-3-(4-(3-aminopropoxy)phenyl)propanoic Acid], in assay [1], at 0.3 µM the inhibition was 28%, 3 µM produced 28.9% inhibition and 30 µM produced 68.5% inhibition. In assay [2], this compound yielded an inhibition at 10 µM of 0% and an inhibition at 50 µM of 0%. In assay [3], the inhibition at 0.1 µM was found to be 26%, the inhibition at 1 µM worked out at 26% and the inhibition at 10 µM was determined as 19%. Further, in assay [4], the “IC50 towards MMP2, in words” value was “micromolar range”; the inhibition at 10 µM stood at 60%; the inhibition at 50 µM amounted to 79%; the IC50 worked out at 1200 nM.

In assay [1], `N=C(N)NCCCOc1ccc(C[C@H](NS(=O)(=O)c2ccc(-c3ccccc3)cc2)C(=O)O)cc1` [Compound 10, (S)-2-([1,1′-Biphenyl]-4-ylsulfonamido)-3-(4-(3-guanidinopropoxy)phenyl)propanoic Acid] returned an inhibition at 0.3 µM of 43.8%, an inhibition at 3 µM of 76.7% and an inhibition at 30 µM of 76.9%. Moreover, in assay [2], the inhibition at 10 µM was 0% and 50 µM produced 0% inhibition. Also, in assay [3], the inhibition at 0.1 µM is 8%, the inhibition at 1 µM was determined as 1% and the inhibition at 10 µM was determined as 5%. In assay [4], this compound returned an inhibition at 10 µM of 16% and an inhibition at 50 µM of 41%.

On to `O=C(NO)[C@H](Cc1ccc(O)cc1)NS(=O)(=O)c1ccc(-c2ccccc2)cc1` [Compound 21, (S)-2-([1,1′-Biphenyl]-4-ylsulfonamido)-N-hydroxy-3-(4-hydroxyphenyl)propanamide], for which, in assay [1], 0.3 µM produced 29.7% inhibition, 3 µM produced 28.8% inhibition and the inhibition at 30 µM came to 17.4%. Further, in assay [2], the inhibition at 10 µM turned out to be 63%, the inhibition at 50 µM came out at 73% and the IC50 amounted to 361 nM. Also, in assay [3], the inhibition at 0.1 µM is 20%, the inhibition at 1 µM worked out at 12% and the inhibition at 10 µM turned out to be 2%. In assay [4], at 10 µM the inhibition was 97%; the inhibition at 50 µM came out at 100%; the midpoint of inhibition, the IC50, lay at 37 nM.

In assay [2], `NCCCOc1ccc(C[C@H](NS(=O)(=O)c2ccc([N+](=O)[O-])cc2)C(=O)O)cc1` [Compound 17, (S)-3-(4-(3-Aminopropoxy)phenyl)-2-(4-nitrophenylsulfonamido)propanoic Acid] showed an inhibition at 10 µM of 0% and an inhibition at 50 µM of 0%. In assay [3], the inhibition at 0.1 µM came to 0%, the inhibition at 1 µM came to 0% and the inhibition at 10 µM was 0%. Besides, in assay [4], testing at 10 µM gave an inhibition of 0% and the inhibition at 50 µM is 0%.

In assay [1], `N=C(N)NCCCOc1ccc(C[C@H](NS(=O)(=O)c2ccccc2)C(=O)NO)cc1` [Compound 18, (S)-3-(4-(3-Guanidinopropoxy)phenyl)-N-hydroxy-2-(phenylsulfonamido)propanamide] showed an inhibition at 0.3 µM of 44.9%, an inhibition at 3 µM of 64.3% and an inhibition at 30 µM of 74.1%. Besides, in assay [2], 10 µM produced 42% inhibition, the inhibition at 50 µM turned out to be 63% and the IC50 amounted to 1300 nM. In addition, in assay [3], the inhibition at 0.1 µM was 0%, the inhibition at 1 µM was 0% and the inhibition at 10 µM came to 27%. In assay [4], this compound returned an inhibition at 10 µM of 52%, an inhibition at 50 µM of 75% and an IC50 of 760 nM.
